Values after ≈ are worked out from the molar mass of the structure shown.
Assays:
Type in all cases: functional
Staphylococcus aureus [1] = experiment: Antibacterial activity against methicillin-resistant Staphylococcus aureus assessed growth inhibition by micro broth dilution method
Staphylococcus aureus [2] = experiment: Antibacterial activity against Staphylococcus aureus assessed growth inhibition by micro broth dilution method
Staphylococcus aureus [3] = experiment: Antibacterial activity against Staphylococcus aureus ATCC 25923 assessed growth inhibition by micro broth dilution method
Staphylococcus aureus [4] = experiment: Antibacterial activity against Staphylococcus aureus ATCC 29213 assessed growth inhibition by micro broth dilution method
Enterococcus faecalis = experiment: Antibacterial activity against Enterococcus faecalis assessed growth inhibition by micro broth dilution method
Klebsiella pneumoniae = experiment: Antibacterial activity against Klebsiella pneumonia assessed growth inhibition by micro broth dilution method
Escherichia coli [5] = experiment: Antibacterial activity against Escherichia coli assessed growth inhibition by micro broth dilution method
Escherichia coli [6] = experiment: Antibacterial activity against Escherichia coli ATCC 25922 assessed growth inhibition by micro broth dilution method
Pseudomonas aeruginosa [7] = experiment: Antibacterial activity against Pseudomonas aeruginosa assessed growth inhibition by micro broth dilution method
Pseudomonas aeruginosa [8] = experiment: Antibacterial activity against Pseudomonas aeruginosa ATCC 27853 assessed growth inhibition by micro broth dilution method
Acinetobacter baumannii = experiment: Antibacterial activity against Acinetobacter baumannii assessed growth inhibition by micro broth dilution method

Work on CCOC(=O)c1cn(CC)c2cc([C-](C#N)C(=O)OCC)c(F)cc2c1=O.[Na+] (centres undefined) yielded an MIC (Staphylococcus aureus [1]) of 64 µg/mL, an MIC (Staphylococcus aureus [2]) of 256 µg/mL and an MIC (Staphylococcus aureus [3]) of 2 µg/mL. For the same compound, the MIC (Staphylococcus aureus [4]) was 64 µg/mL, the MIC (Enterococcus faecalis) was 64 µg/mL and the MIC (Klebsiella pneumoniae) was 32 µg/mL. It also gave an MIC (Escherichia coli [5]) of 64 µg/mL, an MIC (Escherichia coli [6]) of 32 µg/mL and an MIC (Pseudomonas aeruginosa [7]) of 32 µg/mL. The MIC (Pseudomonas aeruginosa [8]) was 32 µg/mL and the MIC (Acinetobacter baumannii) was 32 µg/mL.

CCOC(=O)c1cn(CC(=O)N2CCCCC2)c2cc([C-](C#N)C(=O)OCC)c(F)cc2c1=O.[Na+] (centres undefined) was tested, and the MIC (Staphylococcus aureus [1]) was 32 µg/mL, the MIC (Staphylococcus aureus [2]) was 256 µg/mL and the MIC (Staphylococcus aureus [3]) was 64 µg/mL. It also gave an MIC (Staphylococcus aureus [4]) of 8 µg/mL, an MIC (Enterococcus faecalis) of 64 µg/mL and an MIC (Klebsiella pneumoniae) of 256 µg/mL. For the same compound, the MIC (Escherichia coli [5]) was 32 µg/mL, the MIC (Escherichia coli [6]) was 64 µg/mL and the MIC (Pseudomonas aeruginosa [7]) was 128 µg/mL. It also gave an MIC (Pseudomonas aeruginosa [8]) of 16 µg/mL and an MIC (Acinetobacter baumannii) of 16 µg/mL.

In the case of CCOC(=O)c1cn(Cc2ccc(F)cc2F)c2cc(F)c(F)cc2c1=O, the MIC (Staphylococcus aureus [1]) was 256 µg/mL (≈ 675 µM), the MIC (Staphylococcus aureus [2]) was 256 µg/mL (≈ 675 µM) and the MIC (Staphylococcus aureus [3]) was 256 µg/mL (≈ 675 µM). It also gave an MIC (Staphylococcus aureus [4]) of 256 µg/mL (≈ 675 µM), an MIC (Enterococcus faecalis) of 256 µg/mL (≈ 675 µM) and an MIC (Klebsiella pneumoniae) of 0.25 µg/mL (≈ 0.659 µM). The MIC (Escherichia coli [5]) was 16 µg/mL (≈ 42.2 µM), the MIC (Escherichia coli [6]) was 128 µg/mL (≈ 337 µM) and the MIC (Pseudomonas aeruginosa [7]) was 64 µg/mL (≈ 169 µM). It also gave an MIC (Pseudomonas aeruginosa [8]) of 256 µg/mL (≈ 675 µM) and an MIC (Acinetobacter baumannii) of 16 µg/mL (≈ 42.2 µM).

CCOC(=O)c1cn(C)c2cc(F)c(F)cc2c1=O was tested, and the MIC (Staphylococcus aureus [1]) was 256 µg/mL (≈ 958 µM), the MIC (Staphylococcus aureus [2]) was 128 µg/mL (≈ 479 µM) and the MIC (Staphylococcus aureus [3]) was 256 µg/mL (≈ 958 µM). For the same compound, the MIC (Staphylococcus aureus [4]) was 128 µg/mL (≈ 479 µM), the MIC (Enterococcus faecalis) was 128 µg/mL (≈ 479 µM) and the MIC (Klebsiella pneumoniae) was 64 µg/mL (≈ 239 µM). For the same compound, the MIC (Escherichia coli [5]) was 16 µg/mL (≈ 59.9 µM), the MIC (Escherichia coli [6]) was 128 µg/mL (≈ 479 µM) and the MIC (Pseudomonas aeruginosa [7]) was 64 µg/mL (≈ 239 µM). It also gave an MIC (Pseudomonas aeruginosa [8]) of 256 µg/mL (≈ 958 µM) and an MIC (Acinetobacter baumannii) of 256 µg/mL (≈ 958 µM).

With CCOC(=O)c1cn(CC(=O)N2CCCCC2)c2cc(F)c(F)cc2c1=O the MIC (Staphylococcus aureus [1]) was 256 µg/mL (≈ 677 µM), the MIC (Staphylococcus aureus [2]) was 256 µg/mL (≈ 677 µM) and the MIC (Staphylococcus aureus [3]) was 128 µg/mL (≈ 338 µM). It also gave an MIC (Staphylococcus aureus [4]) of 64 µg/mL (≈ 169 µM), an MIC (Enterococcus faecalis) of 64 µg/mL (≈ 169 µM) and an MIC (Klebsiella pneumoniae) of 256 µg/mL (≈ 677 µM). It also gave an MIC (Escherichia coli [5]) of 16 µg/mL (≈ 42.3 µM), an MIC (Escherichia coli [6]) of 64 µg/mL (≈ 169 µM) and an MIC (Pseudomonas aeruginosa [7]) of 32 µg/mL (≈ 84.6 µM). For the same compound, the MIC (Pseudomonas aeruginosa [8]) was 64 µg/mL (≈ 169 µM) and the MIC (Acinetobacter baumannii) was 64 µg/mL (≈ 169 µM).

For CCOC(=O)c1cn(Cc2ccc(C)cc2)c2cc([C-](C#N)C(=O)OCC)c(F)cc2c1=O.[Na+] (centres undefined), the MIC (Staphylococcus aureus [1]) was 64 µg/mL, the MIC (Staphylococcus aureus [2]) was 32 µg/mL and the MIC (Staphylococcus aureus [3]) was 0.5 µg/mL. It also gave an MIC (Staphylococcus aureus [4]) of 0.5 µg/mL, an MIC (Enterococcus faecalis) of 16 µg/mL and an MIC (Klebsiella pneumoniae) of 2 µg/mL. For the same compound, the MIC (Escherichia coli [5]) was 1 µg/mL, the MIC (Escherichia coli [6]) was 1 µg/mL and the MIC (Pseudomonas aeruginosa [7]) was 8 µg/mL. The MIC (Pseudomonas aeruginosa [8]) was 1 µg/mL and the MIC (Acinetobacter baumannii) was 2 µg/mL.

For CCCCCn1cc(C(=O)OCC)c(=O)c2cc(F)c(F)cc21, the MIC (Staphylococcus aureus [1]) was 256 µg/mL (≈ 792 µM), the MIC (Staphylococcus aureus [2]) was 32 µg/mL (≈ 99 µM) and the MIC (Staphylococcus aureus [3]) was 256 µg/mL (≈ 792 µM). It also gave an MIC (Staphylococcus aureus [4]) of 64 µg/mL (≈ 198 µM), an MIC (Enterococcus faecalis) of 64 µg/mL (≈ 198 µM) and an MIC (Klebsiella pneumoniae) of 64 µg/mL (≈ 198 µM). For the same compound, the MIC (Escherichia coli [5]) was 16 µg/mL (≈ 49.5 µM), the MIC (Escherichia coli [6]) was 64 µg/mL (≈ 198 µM) and the MIC (Pseudomonas aeruginosa [7]) was 64 µg/mL (≈ 198 µM). For the same compound, the MIC (Pseudomonas aeruginosa [8]) was 256 µg/mL (≈ 792 µM) and the MIC (Acinetobacter baumannii) was 64 µg/mL (≈ 198 µM).

For CCOC(=O)c1cn(CC2CCC2)c2cc(F)c(F)cc2c1=O, the MIC (Staphylococcus aureus [1]) was 256 µg/mL (≈ 797 µM), the MIC (Staphylococcus aureus [2]) was 64 µg/mL (≈ 199 µM) and the MIC (Staphylococcus aureus [3]) was 16 µg/mL (≈ 49.8 µM). It also gave an MIC (Staphylococcus aureus [4]) of 256 µg/mL (≈ 797 µM), an MIC (Enterococcus faecalis) of 128 µg/mL (≈ 398 µM) and an MIC (Klebsiella pneumoniae) of 32 µg/mL (≈ 99.6 µM). It also gave an MIC (Escherichia coli [5]) of 16 µg/mL (≈ 49.8 µM), an MIC (Escherichia coli [6]) of 128 µg/mL (≈ 398 µM) and an MIC (Pseudomonas aeruginosa [7]) of 32 µg/mL (≈ 99.6 µM). It also gave an MIC (Pseudomonas aeruginosa [8]) of 256 µg/mL (≈ 797 µM) and an MIC (Acinetobacter baumannii) of 128 µg/mL (≈ 398 µM).

CCOC(=O)c1cn(CC)c2cc(C(C#N)C(=O)OCC)c(F)cc2c1=O (centres undefined) showed an MIC (Staphylococcus aureus [1]) of 256 µg/mL (≈ 684 µM), an MIC (Staphylococcus aureus [2]) of 32 µg/mL (≈ 85.5 µM) and an MIC (Staphylococcus aureus [3]) of 8 µg/mL (≈ 21.4 µM). For the same compound, the MIC (Staphylococcus aureus [4]) was 16 µg/mL (≈ 42.7 µM), the MIC (Enterococcus faecalis) was 32 µg/mL (≈ 85.5 µM) and the MIC (Klebsiella pneumoniae) was 8 µg/mL (≈ 21.4 µM). The MIC (Escherichia coli [5]) was 16 µg/mL (≈ 42.7 µM), the MIC (Escherichia coli [6]) was 16 µg/mL (≈ 42.7 µM) and the MIC (Pseudomonas aeruginosa [7]) was 8 µg/mL (≈ 21.4 µM). It also gave an MIC (Pseudomonas aeruginosa [8]) of 8 µg/mL (≈ 21.4 µM) and an MIC (Acinetobacter baumannii) of 32 µg/mL (≈ 85.5 µM).

CCOC(=O)c1cn(Cc2ccccc2)c2cc([C-](C#N)C(=O)OCC)c(F)cc2c1=O.[Na+] (centres undefined) showed an MIC (Staphylococcus aureus [1]) of 256 µg/mL, an MIC (Staphylococcus aureus [2]) of 64 µg/mL and an MIC (Staphylococcus aureus [3]) of 0.5 µg/mL. It also gave an MIC (Staphylococcus aureus [4]) of 4 µg/mL, an MIC (Enterococcus faecalis) of 64 µg/mL and an MIC (Klebsiella pneumoniae) of 4 µg/mL. It also gave an MIC (Escherichia coli [5]) of 4 µg/mL, an MIC (Escherichia coli [6]) of 2 µg/mL and an MIC (Pseudomonas aeruginosa [7]) of 32 µg/mL. The MIC (Pseudomonas aeruginosa [8]) was 4 µg/mL and the MIC (Acinetobacter baumannii) was 8 µg/mL.

For CCOC(=O)c1cn2c3c(c([C-](C#N)C(=O)OCC)c(F)cc3c1=O)OC[C@@H]2C.[Na+] (some centres undefined), the MIC (Staphylococcus aureus [1]) was 128 µg/mL, the MIC (Staphylococcus aureus [2]) was 256 µg/mL and the MIC (Staphylococcus aureus [3]) was 4 µg/mL. It also gave an MIC (Staphylococcus aureus [4]) of 256 µg/mL, an MIC (Enterococcus faecalis) of 128 µg/mL and an MIC (Klebsiella pneumoniae) of 256 µg/mL. It also gave an MIC (Escherichia coli [5]) of 64 µg/mL, an MIC (Escherichia coli [6]) of 64 µg/mL and an MIC (Pseudomonas aeruginosa [7]) of 256 µg/mL. For the same compound, the MIC (Pseudomonas aeruginosa [8]) was 64 µg/mL and the MIC (Acinetobacter baumannii) was 128 µg/mL.

For CCCCCCCCCCCCn1cc(C(=O)OCC)c(=O)c2cc(F)c([C-](C#N)C(=O)OCC)cc21.[Na+] (centres undefined), the MIC (Staphylococcus aureus [1]) was 8 µg/mL, the MIC (Staphylococcus aureus [2]) was 32 µg/mL and the MIC (Staphylococcus aureus [3]) was 1 µg/mL. It also gave an MIC (Staphylococcus aureus [4]) of 1 µg/mL, an MIC (Enterococcus faecalis) of 8 µg/mL and an MIC (Klebsiella pneumoniae) of 1 µg/mL. The MIC (Escherichia coli [5]) was 1 µg/mL, the MIC (Escherichia coli [6]) was 0.5 µg/mL and the MIC (Pseudomonas aeruginosa [7]) was 4 µg/mL. The MIC (Pseudomonas aeruginosa [8]) was 0.25 µg/mL and the MIC (Acinetobacter baumannii) was 0.25 µg/mL.

CCOC(=O)c1cn(C2CC2)c2cc(C(C#N)C(=O)OCC)c(F)cc2c1=O (centres undefined) gave an MIC (Staphylococcus aureus [1]) of 128 µg/mL (≈ 331 µM), an MIC (Staphylococcus aureus [2]) of 16 µg/mL (≈ 41.4 µM) and an MIC (Staphylococcus aureus [3]) of 8 µg/mL (≈ 20.7 µM). It also gave an MIC (Staphylococcus aureus [4]) of 32 µg/mL (≈ 82.8 µM), an MIC (Enterococcus faecalis) of 32 µg/mL (≈ 82.8 µM) and an MIC (Klebsiella pneumoniae) of 8 µg/mL (≈ 20.7 µM). For the same compound, the MIC (Escherichia coli [5]) was 32 µg/mL (≈ 82.8 µM), the MIC (Escherichia coli [6]) was 32 µg/mL (≈ 82.8 µM) and the MIC (Pseudomonas aeruginosa [7]) was 8 µg/mL (≈ 20.7 µM). The MIC (Pseudomonas aeruginosa [8]) was 64 µg/mL (≈ 166 µM) and the MIC (Acinetobacter baumannii) was 32 µg/mL (≈ 82.8 µM).

CCOC(=O)c1cn(CCN2CCOCC2)c2cc([C-](C#N)C(=O)OCC)c(F)cc2c1=O.[Na+] (centres undefined) showed an MIC (Staphylococcus aureus [1]) of 256 µg/mL, an MIC (Staphylococcus aureus [2]) of 256 µg/mL and an MIC (Staphylococcus aureus [3]) of 256 µg/mL. For the same compound, the MIC (Staphylococcus aureus [4]) was 256 µg/mL, the MIC (Enterococcus faecalis) was 256 µg/mL and the MIC (Klebsiella pneumoniae) was 256 µg/mL. It also gave an MIC (Escherichia coli [5]) of 256 µg/mL, an MIC (Escherichia coli [6]) of 256 µg/mL and an MIC (Pseudomonas aeruginosa [7]) of 256 µg/mL. It also gave an MIC (Pseudomonas aeruginosa [8]) of 256 µg/mL and an MIC (Acinetobacter baumannii) of 256 µg/mL.
